Laboratory results: patent US11229638B2, “Therapeutic heterocyclic compounds” (Gilead Sciences, Inc., priority 2017, dated 2022)
pEC50: −log10 of the molar value.

Molecular target: T1, IDO1 (Homo sapiens, UniProt P14902)
T1 construct: HeLa cells were treated with a test compound in the presence of IFNγ, which induces IDO1 expression; host or cells: H1-HeLa cells, IDO1 induced with IFN-gamma
Experiment: Cell-Based (HeLa) Assay for Measurement of IDO1 Inhibition
Conditions: H1-HeLa cells, IDO1 induced by IFNγ, 48 hour incubation, kynurenine in supernatant (absorbance at 480 nm); geometric mean of a minimum of four determinations
Experimental: Example 509. Cell-Based (HeLa) Assay for Measurement of IDO1 Inhibition
To measure IDO1 inhibition in tissue culture, HeLa cells were treated with a test compound in the presence of IFNγ, which induces IDO1 expression. Following incubation, cell supernatants were assayed for kynurenine levels, an indicator of IDO1 activity.
H1-HeLa cells (ATCC # CRL-1958) were seeded in 384-well plates (Greiner #82051-282) at a volume of 50 µL/well in DMEM (Corning #15-018-CM) supplemented with 10% FBS (Corning #35-011-CV) and 1% P/S/G (Corning #30-009-CL) at a density of 1,250 cells/well and incubated overnight at 37° C., 5% CO2/100% humidity. The following day, the test compounds were added in DMSO (0.5% final) at various concentrations, and IDO1 was inducibly expressed by the addition of 50 uL/well of 50 ng/mL of INFγ (Peprotech #300-02) in cell plating media. As a positive control, 50 uL of the cell plating media without IFNγ was added to several wells. Following a 48 hour incubation, the plates were spun down at 1,200 RPM for 5 min at 10° C. […]
Data in Table 1 were normalized based on positive (−IFNγ) and negative (+IFNγ) controls and EC50 values were calculated from the fit of the dose-response curves to a four-parameter equation. […]

T1 sequence (P14902 whole entry): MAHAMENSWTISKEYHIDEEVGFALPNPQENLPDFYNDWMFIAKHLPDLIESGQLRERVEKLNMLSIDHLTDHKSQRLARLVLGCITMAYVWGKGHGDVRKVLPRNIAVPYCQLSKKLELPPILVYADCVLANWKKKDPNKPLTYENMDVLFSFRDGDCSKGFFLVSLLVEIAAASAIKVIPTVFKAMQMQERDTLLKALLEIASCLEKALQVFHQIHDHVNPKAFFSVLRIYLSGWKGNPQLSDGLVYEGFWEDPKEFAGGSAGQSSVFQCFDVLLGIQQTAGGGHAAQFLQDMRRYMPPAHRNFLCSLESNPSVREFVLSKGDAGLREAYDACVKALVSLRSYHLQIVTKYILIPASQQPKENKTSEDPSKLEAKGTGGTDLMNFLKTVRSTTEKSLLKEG

Compound	pEC50
N-(4-chlorophenyl)-5-(3-(2,3-difluorophenyl)imidazo[1,5-a]pyridin-8-yl)-2-methylnicotinamide [Example 61]	7.52
Cc1ncc(-c2cccn3c(C4CCOC4)ncc23)cc1C(=O)Nc1ccc(F)cc1 (centres unmarked) [Example 76, N-(4-fluorophenyl)-2-methyl-5-(3-(tetrahydrofuran-3-yl)imidazo[1,5-a]pyridin-8-yl)nicotinamide]	5.30
